Measured values taken from patent publication US8293261B2, “Intravascular implant” (Terumo Kabushiki Kaisha, priority 2005, dated 2012).

Tested on: human vascular smooth muscle cells
Type: cell-based
Conditions: for IC50: human vascular smooth muscle cells, 48 hours with substance, WST-1 absorbance at 450 nm
Experimental: Substances indicated in Table 1 were used to carry out a cell cytotoxicity test using human vascular smooth muscle cells.
More particularly, human vascular smooth muscle cells were implanted into individual wells of a 96-well microtitor plate along with a culture solution (commercial name: SmGM-2 Bullet kit, made by Cambrex Corporation), followed by cultivation in a carbon dioxide gas incubator at 37° C. for 48 hours. The culture solution dissolving MgCl2 that was used as a chemical substance to be tested was added thereto in every […] so that a final concentration was at 1×10^−7 to 10^−1 M, followed by cultivation for further 48 hours.
Next, WST-1 (La Roche Ltd.) was added, followed by cultivation for 4 hours. WST-1 taken in the human vascular smooth muscle cells was extracted, and the absorbance at 450 nm of the resulting extract was measured by means of a microreader (commercial name: iEMS reader MF, made by Labsystems Inc.). It will be noted that WST-1 taken in the human vascular smooth muscle cells emits light when oxidized and reduced by means of an electron transmission system of mitochondria. Accordingly, WST-1 emits light by reaction only with living cells.
A graph was made wherein an abscissa indicates a concentration of a chemical substance to be subjected to the cytotoxicity test and an ordinate indicates a ratio of a quantity of emitted light of cells subjected to treatment with a chemical substance to be tested to a quantity of emitted light of non-treated cells for reference. The degree of cell cytotoxicity was quantified as a concentration of a chemical substance (IC50 value) at which a ratio of a quantity of a dye taken in the treated cells to a quantity of a dye taken in non-treated cells was at 50%.
Such a test was carried out with respect to other types of chemical substances (NdCl2, GdCl2, Ycl3, CrCl2, and NiCl2) to be subjected to the cytotoxicity test to likewise obtain IC50 values.

Structure (SMILES)	IC50 [mM]	cell cytotoxicity (in words)
[Cl][Cr][Cl] [CrCl2]	0.11	–
[Cl-].[Cl-].[Mg+2] [MgCl2]	34	very low
[Cl][Gd][Cl] [GdCl2]	81	very low
[Cl-].[Cl-].[Cl-].[Y+3] [Ycl3]	0.36	–
[Cl][Ni][Cl] [NiCl2]	0.75	–
[Cl-].[Cl-].[Nd+2] [NdCl2]	74	very low
